The values below come from ChEMBL document CHEMBL1135264, “Thalidomide and its analogues as cyclooxygenase inhibitors” (Bioorg Med Chem Lett, 2002).

Activity calls are given as the source filed them. The rule behind the calls is not given here. Some results are limits rather than exact numbers.

For one assay, the target named is T1, Prostaglandin G/H synthase 1 (Ovis aries, UniProt P05979).
T1 sequence (P05979 whole entry): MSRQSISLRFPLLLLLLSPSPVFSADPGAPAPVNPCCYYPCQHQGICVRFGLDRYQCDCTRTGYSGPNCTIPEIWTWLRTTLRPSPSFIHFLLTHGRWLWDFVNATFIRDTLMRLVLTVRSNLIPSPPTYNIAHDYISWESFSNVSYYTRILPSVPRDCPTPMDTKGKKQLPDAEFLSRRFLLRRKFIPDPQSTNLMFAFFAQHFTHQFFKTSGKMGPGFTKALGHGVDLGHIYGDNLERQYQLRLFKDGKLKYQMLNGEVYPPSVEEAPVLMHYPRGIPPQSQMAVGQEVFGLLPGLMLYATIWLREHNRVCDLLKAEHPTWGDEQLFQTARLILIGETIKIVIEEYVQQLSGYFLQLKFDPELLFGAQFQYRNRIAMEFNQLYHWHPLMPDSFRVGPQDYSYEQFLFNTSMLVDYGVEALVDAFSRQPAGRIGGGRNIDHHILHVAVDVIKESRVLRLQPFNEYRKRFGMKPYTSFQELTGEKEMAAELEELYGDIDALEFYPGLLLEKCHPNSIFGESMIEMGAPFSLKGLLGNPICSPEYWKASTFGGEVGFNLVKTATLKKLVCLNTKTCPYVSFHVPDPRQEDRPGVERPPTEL
Put plainly: Inhibitory activity (RA1) against Prostaglandin G/H synthase 1 was calculated relative to aspirin.
For `C[C@]1(N2C(=O)c3ccccc3C2=O)CCC(=O)NC1=O`, the IC50 result is reported as “Not Active”.

Another assay deals with T2, Prostaglandin G/H synthase 1 (Ovis aries) (UniProt P05979).
T2 sequence (whole entry): T1 sequence (P05979 whole entry)
Put plainly: Selective index (SI) which is the ratio of IC50 of Prostaglandin G/H synthase 1 / […].
In the case of `COc1cc(OC)nc(N2C(=O)Cc3ccccc3C2=O)n1`, the Ratio was 0.38.
On the same count and under the same terms, the same measure for `Cc1cc(C)c(C)c(N2C(=O)c3ccccc3C2=O)c1`: 4.05; for `C[C@@]1(N2C(=O)c3ccc([N+](=O)[O-])cc3C2=O)CCC(=O)NC1=O`: 2.63.
On to `C[C@@]1(N2C(=O)c3ccc(N)cc3C2=O)CCC(=O)NC1=O`, for which the Ratio was below 0.07.
For the molecule `Cc1cc(C)c(C)c(N2C(=O)c3ccccc3C2=O)c1C`, the Ratio is 4.16.
For `O=C1NCCCC1N1C(=O)c2ccccc2C1=O` (stereo unspecified), the Ratio stood at 1.43.
On the same count and under the same terms, for `COc1cc(C)nc(N2C(=O)Cc3ccccc3C2=O)n1` the value was 0.45; for `O=C1CCN(N2C(=O)c3ccccc3C2=O)C(=O)N1`, 1.45; for `O=C1c2ccccc2C(=O)N1c1cnc(O)nc1O`, 7.69.
For `Cc1cc(C)nc(N2C(=O)Cc3ccccc3C2=O)c1`, the Ratio was determined as 0.51.
As for `C[C@@]1(N2C(=O)c3ccccc3C2=O)CCC(=O)NC1=O`, the Ratio stood at 2.56.
The same measure, in the same setting: the same measure for `O=C1c2ccccc2C(=O)N1CCn1ccc(=O)[nH]c1=O`: 0.44; for `C[C@@]1(N2C(=O)c3cccc([N+](=O)[O-])c3C2=O)CCC(=O)NC1=O`: 0.23; for `Cc1cc(C)nc(N2C(=O)Cc3ccccc3C2=O)n1`: 0.45.
On the same count and under the same terms, for `O=C1CCC(N2C(=O)c3ccccc3C2=O)C(=O)N1` (stereo unspecified) the value was 1.23.
On the same count and under the same terms, for `Cc1cc(C)cc(N2C(=O)c3ccccc3C2=O)c1` the value was 2.14; for `C[C@@]1(N2C(=O)c3cccc(N)c3C2=O)CCC(=O)NC1=O`, 11.1.
For `Cc1cc(C)cc(N2C(=O)Cc3ccccc3C2=O)c1`, the Ratio was 0.39.

For a further assay, the target named is T2, Prostaglandin G/H synthase 1 (Ovis aries). Put plainly: Selective index (SI) which is the ratio of IC50 of Prostaglandin G/H synthase 1 / […]; IN=Inactive.
Consider `C[C@]1(N2C(=O)c3ccccc3C2=O)CCC(=O)NC1=O`, for which the Ratio result was “inactive”.

The target of the next assay is T3, Prostaglandin G/H synthase 2 (Ovis aries, UniProt P79208).
T3 sequence (P79208 whole entry): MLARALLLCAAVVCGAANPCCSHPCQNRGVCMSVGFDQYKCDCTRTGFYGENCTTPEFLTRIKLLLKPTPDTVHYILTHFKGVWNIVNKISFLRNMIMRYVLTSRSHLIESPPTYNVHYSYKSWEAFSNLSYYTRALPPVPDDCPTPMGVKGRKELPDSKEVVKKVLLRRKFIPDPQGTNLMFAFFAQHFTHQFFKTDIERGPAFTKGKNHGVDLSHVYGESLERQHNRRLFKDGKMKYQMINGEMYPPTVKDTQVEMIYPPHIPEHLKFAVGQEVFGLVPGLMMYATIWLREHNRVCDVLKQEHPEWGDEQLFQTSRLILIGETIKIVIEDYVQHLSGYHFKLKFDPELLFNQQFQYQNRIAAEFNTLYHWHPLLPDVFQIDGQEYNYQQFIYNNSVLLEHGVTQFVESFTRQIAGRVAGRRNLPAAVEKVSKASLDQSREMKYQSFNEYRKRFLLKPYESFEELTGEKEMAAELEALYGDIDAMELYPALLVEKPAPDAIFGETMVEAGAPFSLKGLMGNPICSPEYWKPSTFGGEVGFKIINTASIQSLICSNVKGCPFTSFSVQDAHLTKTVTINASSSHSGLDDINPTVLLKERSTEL
Put plainly: Inhibitory activity (RA2) against Prostaglandin G/H synthase 2 was calculated relative to aspirin.
Take `C[C@]1(N2C(=O)c3ccccc3C2=O)CCC(=O)NC1=O`: the IC50 result was “Not Active”.
